# Columns and labels:
# Assay type in all cases: functional
# [1] = Antiproliferative activity against human UACC62 cells after 3 days by fluorescence assay; details: UACC-62, 72 h
# SW-620 = assay: Antiproliferative activity against human SW620 cells after 3 days by fluorescence assay; details: SW-620, 72 h
# HOP-62 = assay: Antiproliferative activity against human HOP62 cells after 3 days by fluorescence assay; details: HOP-62, 72 h
# ACHN = assay: Antiproliferative activity against human ACHN cells after 3 days by fluorescence assay; details: 72 h
# SNB-75 = assay: Antiproliferative activity against human SNB75 cells after 3 days by fluorescence assay; details: SNB-75, 72 h
# [2] = Antiproliferative activity against human RPMI8226 cells after 3 days by fluorescence assay; details: RPMI-8226, 72 h
# DU-145 = assay: Antiproliferative activity against human DU145 cells after 3 days by fluorescence assay; details: DU-145, 72 h
# NCI-H23 = assay: Antiproliferative activity against human NCI-H23 cells after 3 days by fluorescence assay; details: NCI-H23, 72 h
# NCI-H460 = assay: Antiproliferative activity against human NCI-H460 cells after 3 days by fluorescence assay; details: NCI-H460, 72 h
# SN12C = assay: Antiproliferative activity against human SN12C cells after 3 days by fluorescence assay; details: 72 h
# [3] = Antiproliferative activity against human PC3 cells after 3 days by fluorescence assay; details: PC-3, 72 h
# T47D = assay: Antiproliferative activity against human T47D cells after 3 days by fluorescence assay; details: 72 h
# NCI-H322M = assay: Antiproliferative activity against human NCI-H322M cells after 3 days by fluorescence assay; details: 72 h
# K562 = assay: Antiproliferative activity against human K562 cells after 3 days by fluorescence assay; details: K562, 72 h
# [4] = Antiproliferative activity against human BT549 cells after 3 days by fluorescence assay; details: BT-549, 72 h
# [5] = Antiproliferative activity against human RXF393 cells after 3 days by fluorescence assay; details: RXF 393, 72 h
# U-251 = assay: Antiproliferative activity against human U251 cells after 3 days by fluorescence assay; details: U-251, 72 h
# SK-MEL-28 = assay: Antiproliferative activity against human SK-MEL-28 cells after 3 days by fluorescence assay; details: SK-MEL-28, 72 h
# A549 = assay: Antiproliferative activity against human A549 cells after 3 days by fluorescence assay; details: A549, 72 h
# [6] = Antiproliferative activity against human SKOV3 cells after 3 days by fluorescence assay; details: SK-OV-3, 72 h
# [7] = Antiproliferative activity against human SF295 cells after 3 days by fluorescence assay; details: SF-295, 72 h
# Malme-3M = assay: Antiproliferative activity against human MALME-3M cells after 3 days by fluorescence assay; details: 72 h
# TK-10 = assay: Antiproliferative activity against human TK10 cells after 3 days by fluorescence assay; details: TK-10, 72 h
# [8] = Antiproliferative activity against human COLO205 cells after 3 days by fluorescence assay; details: COLO 205, 72 h
# MDA-MB-435 = assay: Antiproliferative activity against human MDA-MB-435 cells after 3 days by fluorescence assay; details: MDA-MB-435, 72 h
# [9] = Antiproliferative activity against human EKVX cells after 3 days by fluorescence assay; details: 72 h
# [10] = Antiproliferative activity against human HOP92 cells after 3 days by fluorescence assay; details: HOP-92, 72 h
# [11] = Antiproliferative activity against human OVCAR5 cells after 3 days by fluorescence assay; details: OVCAR-5, 72 h
# NCI-H226 = assay: Antiproliferative activity against human NCI-H226 cells after 3 days by fluorescence assay; details: NCI-H226, 72 h
# SR = assay: Antiproliferative activity against human SR cells after 3 days by fluorescence assay; details: 72 h
# SK-MEL-5 = assay: Antiproliferative activity against human SK-MEL-5 cells after 3 days by fluorescence assay; details: SK-MEL-5, 72 h
# A498 = assay: Antiproliferative activity against human A498 cells after 3 days by fluorescence assay; details: A498, 72 h
# [12] = Antiproliferative activity against human HCT116 cells after 3 days by fluorescence assay; details: HCT-116, 72 h
# [13] = Antiproliferative activity against human UACC257 cells after 3 days by fluorescence assay; details: UACC-257, 72 h
# MDA-MB-231 = assay: Antiproliferative activity against human MDA-MB-231 cells after 3 days by fluorescence assay; details: MDA-MB-231, 72 h
# [14] = Antiproliferative activity against human OVCAR8 cells after 3 days by fluorescence assay; details: OVCAR-8, 72 h
# HL-60(TB) = assay: Antiproliferative activity against human HL-60(TB) cells after 3 days by fluorescence assay; details: HL-60, 72 h
# MDA-MB-468 = assay: Antiproliferative activity against human MDA-MB-468 cells after 3 days by fluorescence assay; details: MDA-MB-468, 72 h
# [15] = Antiproliferative activity against human NCI-ADR-RES cells after 3 days by fluorescence assay; details: 72 h
# [16] = Antiproliferative activity against human SF539 cells after 3 days by fluorescence assay; details: SF-539, 72 h
# [17] = Antiproliferative activity against human OVCAR3 cells after 3 days by fluorescence assay; details: OVCAR-3, 72 h
# SNB-19 = assay: Antiproliferative activity against human SNB19 cells after 3 days by fluorescence assay; details: SNB-19, 72 h
# [18] = Antiproliferative activity against human MOLT4 cells after 3 days by fluorescence assay; details: MOLT-4, 72 h
# [19] = Antiproliferative activity against human UO31 cells after 3 days by fluorescence assay; details: UO-31, 72 h
# CCRF-CEM = assay: Antiproliferative activity against human CCRF-CEM cells after 3 days by fluorescence assay; details: 72 h
# MCF7 = assay: Antiproliferative activity against human MCF7 cells after 3 days by fluorescence assay; details: MCF7, 72 h
# NCI-H522 = assay: Antiproliferative activity against human NCI-H522 cells after 3 days by fluorescence assay; details: NCI-H522, 72 h
# [20] = Antiproliferative activity against human Hs 578T cells after 3 days by fluorescence assay; details: 72 h
# [21] = Antiproliferative activity against human HCT15 cells after 3 days by fluorescence assay; details: HCT-15, 72 h
# HT-29 = assay: Antiproliferative activity against human HT-29 cells after 3 days by fluorescence assay; details: HT-29, 72 h
# M14 = assay: Antiproliferative activity against human M14 cells after 3 days by fluorescence assay; details: M14, 72 h
# CAKI-1 = assay: Antiproliferative activity against human CAKI-1 cells after 3 days by fluorescence assay; details: CAKI-1, 72 h
# [22] = Antiproliferative activity against human OVCAR4 cells after 3 days by fluorescence assay; details: OVCAR-4, 72 h
# [23] = Antiproliferative activity against human LOXIMVI cells after 3 days by fluorescence assay; details: LOX IMVI, 72 h
# SK-MEL-2 = assay: Antiproliferative activity against human SK-MEL-2 cells after 3 days by fluorescence assay; details: SK-MEL-2, 72 h
# KM12 = assay: Antiproliferative activity against human KM12 cells after 3 days by fluorescence assay; details: KM12, 72 h
# 786-0 = assay: Antiproliferative activity against human 786-0 cells after 3 days by fluorescence assay; details: 786-0, 72 h
# IGROV-1 = assay: Antiproliferative activity against human IGROV1 cells after 3 days by fluorescence assay; details: IGROV-1, 72 h
# SF-268 = assay: Antiproliferative activity against human SF268 cells after 3 days by fluorescence assay; details: SF-268, 72 h
# [24] = Antiproliferative activity against human HCC2998 cells after 3 days by fluorescence assay; details: HCC 2998, 72 h
smiles,measurement,setting,value
COc1cccc(-c2noc(Nc3ccc(C)cc3)n2)c1OC,GI50,[1],2880 nM
same,GI50,SW-620,603 nM
same,GI50,HOP-62,2290 nM
same,GI50,ACHN,7080 nM
same,GI50,SNB-75,1910 nM
same,GI50,[2],2950 nM
same,GI50,DU-145,3160 nM
same,GI50,NCI-H23,1740 nM
same,GI50,NCI-H460,2090 nM
same,GI50,SN12C,6030 nM
same,GI50,[3],3800 nM
same,GI50,T47D,3630 nM
same,GI50,NCI-H322M,5130 nM
same,GI50,K562,245 nM
same,GI50,[4],6170 nM
same,GI50,[5],1320 nM
same,GI50,U-251,3720 nM
same,GI50,SK-MEL-28,2340 nM
same,GI50,A549,3160 nM
same,GI50,[6],2880 nM
same,GI50,[7],1100 nM
same,GI50,Malme-3M,1740 nM
same,GI50,TK-10,4470 nM
same,GI50,[8],2570 nM
same,GI50,MDA-MB-435,219 nM
same,GI50,[9],5500 nM
same,GI50,[10],3890 nM
same,GI50,[11],11200 nM
same,GI50,NCI-H226,7760 nM
same,GI50,SR,234 nM
same,GI50,SK-MEL-5,3090 nM
same,GI50,A498,2400 nM
same,GI50,[12],1150 nM
same,GI50,[13],2820 nM
same,GI50,MDA-MB-231,10700 nM
same,GI50,[14],3980 nM
same,GI50,HL-60(TB),676 nM
same,GI50,MDA-MB-468,1100 nM
same,GI50,[15],562 nM
same,GI50,[16],1200 nM
same,GI50,[17],1150 nM
same,GI50,SNB-19,3800 nM
same,GI50,[18],4680 nM
same,GI50,[19],5370 nM
same,GI50,CCRF-CEM,2340 nM
same,GI50,MCF7,1580 nM
same,GI50,NCI-H522,891 nM
same,GI50,[20],3470 nM
same,GI50,[21],1780 nM
same,GI50,HT-29,525 nM
same,GI50,M14,1350 nM
same,GI50,CAKI-1,3160 nM
same,GI50,[22],6310 nM
same,GI50,[23],3090 nM
same,GI50,SK-MEL-2,2290 nM
same,GI50,KM12,1000 nM
same,GI50,786-0,4790 nM
same,GI50,IGROV-1,4790 nM
same,GI50,SF-268,4790 nM
same,GI50,[24],3630 nM

# From ChEMBL document CHEMBL3352299, “Antiproliferative 4-(1,2,4-oxadiazol-5-yl)piperidine-1-carboxamides, a new tubulin inhibitor chemotype” (Bioorg Med Chem Lett, 2014)
